Columns and labels:
[1] = test system: CCRF-CEM; assay: NCI cytotoxicity screen; assay type: cell-based, human; conditions: 10.0 μM one dose
[2] = test system: MOLT-4; assay: NCI cytotoxicity screen; assay type: cell-based, human; conditions: 10.0 μM one dose
[3] = test system: SR; assay: NCI cytotoxicity screen; assay type: cell-based, human; conditions: 10.0 μM one dose
[4] = test system: A549/ATCC; assay: NCI cytotoxicity screen; assay type: cell-based, human; conditions: 10.0 μM one dose; A549/ATCC
[5] = test system: EKVX; assay: NCI cytotoxicity screen; assay type: cell-based, human; conditions: 10.0 μM one dose
[6] = test system: NCI-H226; assay: NCI cytotoxicity screen; assay type: cell-based, human; conditions: 10.0 μM one dose
[7] = test system: NCI-H522; assay: NCI cytotoxicity screen; assay type: cell-based, human; conditions: 10.0 μM one dose
[8] = test system: HCT-15; assay: NCI cytotoxicity screen; assay type: cell-based, human; conditions: 10.0 μM one dose
[9] = test system: HT29; assay: NCI cytotoxicity screen; assay type: cell-based, human; conditions: 10.0 μM one dose; HT-29
[10] = test system: KM12; assay: NCI cytotoxicity screen; assay type: cell-based, human; conditions: 10.0 μM one dose; KM-12
[11] = test system: SF-268; assay: NCI cytotoxicity screen; assay type: cell-based, human; conditions: 10.0 μM one dose
[12] = test system: SNB-19; assay: NCI cytotoxicity screen; assay type: cell-based, human; conditions: 10.0 μM one dose
[13] = test system: SNB-75; assay: NCI cytotoxicity screen; assay type: cell-based, human; conditions: 10.0 μM one dose
[14] = test system: LOX IMVI; assay: NCI cytotoxicity screen; assay type: cell-based, human; conditions: 10.0 μM one dose
[15] = test system: MDA-MB-435; assay: NCI cytotoxicity screen; assay type: cell-based, human; conditions: 10.0 μM one dose
[16] = test system: SK-MEL-5; assay: NCI cytotoxicity screen; assay type: cell-based, human; conditions: 10.0 μM one dose
[17] = test system: UACC-62; assay: NCI cytotoxicity screen; assay type: cell-based, human; conditions: 10.0 μM one dose
[18] = test system: OVCAR-3; assay: NCI cytotoxicity screen; assay type: cell-based, human; conditions: 10.0 μM one dose; OVCAR-3
[19] = test system: CAKI-1; assay: NCI cytotoxicity screen; assay type: cell-based, human; conditions: 10.0 μM one dose
[20] = test system: RXF 393; assay: NCI cytotoxicity screen; assay type: cell-based, human; conditions: 10.0 μM one dose
[21] = test system: UO-31; assay: NCI cytotoxicity screen; assay type: cell-based, human; conditions: 10.0 μM one dose
[22] = test system: PC-3; assay: NCI cytotoxicity screen; assay type: cell-based, human; conditions: 10.0 μM one dose
[23] = test system: MCF7; assay: NCI cytotoxicity screen; assay type: cell-based, human; conditions: 10.0 μM one dose; MCF-7
[24] = test system: MDA-MB-231/ATCC; assay: NCI cytotoxicity screen; assay type: cell-based, human; conditions: 10.0 μM one dose; MDA-MB-231/ATCC
[25] = test system: HS 578T; assay: NCI cytotoxicity screen; assay type: cell-based, human; conditions: 10.0 μM one dose; HS-578T
[26] = test system: T-47D; assay: NCI cytotoxicity screen; assay type: cell-based, human; conditions: 10.0 μM one dose; T-47D
[27] = test system: MDA-MB-468; assay: NCI cytotoxicity screen; assay type: cell-based, human; conditions: 10.0 μM one dose
[28] = test system: 59 cancer cell lines; assay: NCI cytotoxicity screen, full panel; assay type: cell-based, human; conditions: 10.0 μM one dose, 59 cell lines
[29] = biological target: T1, COX-2 (Ovis aries, UniProt P79208); assay: Colorimetric COX; assay type: biochemical, ovine
T1 sequence (P79208 17-603): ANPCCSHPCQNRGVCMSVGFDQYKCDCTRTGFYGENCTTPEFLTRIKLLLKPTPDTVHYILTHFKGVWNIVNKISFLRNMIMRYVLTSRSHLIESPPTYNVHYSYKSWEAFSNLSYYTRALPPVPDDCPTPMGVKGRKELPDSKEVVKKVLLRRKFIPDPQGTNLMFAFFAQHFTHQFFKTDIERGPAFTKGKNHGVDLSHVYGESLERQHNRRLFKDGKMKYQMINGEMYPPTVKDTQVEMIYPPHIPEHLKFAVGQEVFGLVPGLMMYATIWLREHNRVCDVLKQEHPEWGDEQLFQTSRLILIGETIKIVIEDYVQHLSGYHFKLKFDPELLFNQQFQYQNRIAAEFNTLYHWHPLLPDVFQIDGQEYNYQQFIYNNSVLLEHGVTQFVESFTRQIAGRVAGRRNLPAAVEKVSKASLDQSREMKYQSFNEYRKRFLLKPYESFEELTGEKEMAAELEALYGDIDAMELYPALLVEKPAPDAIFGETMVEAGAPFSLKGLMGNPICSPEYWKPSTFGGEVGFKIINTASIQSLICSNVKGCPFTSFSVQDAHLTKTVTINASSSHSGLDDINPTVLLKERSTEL

[30] = biological target: EGFR (Homo sapiens, UniProt P00533); assay: biochemical; conditions: IC50 EGFR inhibition
[31] = biological target: HER2 (Homo sapiens, UniProt P04626); assay: HER2 tyrosine kinase assay; assay type: biochemical; conditions: IC50 HER2 inhibition
[32] = biological target: CDK9 (Homo sapiens, UniProt P50750); assay: biochemical; conditions: IC50 CDK9 inhibition
[33] = test system: K-562; conditions: 10.0 μM one dose
[34] = test system: RPMI-8226; assay: NCI cytotoxicity screen; assay type: cell-based, human; conditions: 10.0 μM one dose
[35] = test system: NCI-H23; assay: NCI cytotoxicity screen; assay type: cell-based, human; conditions: 10.0 μM one dose
[36] = test system: HCT-116; assay: NCI cytotoxicity screen; assay type: cell-based, human; conditions: 10.0 μM one dose
[37] = test system: SF-295; assay: NCI cytotoxicity screen; assay type: cell-based, human; conditions: 10.0 μM one dose
[38] = test system: SF-539; assay: NCI cytotoxicity screen; assay type: cell-based, human; conditions: 10.0 μM one dose
[39] = test system: U251; assay: NCI cytotoxicity screen; assay type: cell-based, human; conditions: 10.0 μM one dose; U-251
[40] = test system: A498; assay: NCI cytotoxicity screen; assay type: cell-based, human; conditions: 10.0 μM one dose; A-498
[41] = test system: DU-145; assay: NCI cytotoxicity screen; assay type: cell-based, human; conditions: 10.0 μM one dose
[42] = test system: Ovarian cancer subpanel tumor cell lines; assay: NCI cytotoxicity screen, subpanel; assay type: cell-based, human; conditions: 10 μM; range over ovarian cancer cell lines

HER2, sequence (P04626 23-1255): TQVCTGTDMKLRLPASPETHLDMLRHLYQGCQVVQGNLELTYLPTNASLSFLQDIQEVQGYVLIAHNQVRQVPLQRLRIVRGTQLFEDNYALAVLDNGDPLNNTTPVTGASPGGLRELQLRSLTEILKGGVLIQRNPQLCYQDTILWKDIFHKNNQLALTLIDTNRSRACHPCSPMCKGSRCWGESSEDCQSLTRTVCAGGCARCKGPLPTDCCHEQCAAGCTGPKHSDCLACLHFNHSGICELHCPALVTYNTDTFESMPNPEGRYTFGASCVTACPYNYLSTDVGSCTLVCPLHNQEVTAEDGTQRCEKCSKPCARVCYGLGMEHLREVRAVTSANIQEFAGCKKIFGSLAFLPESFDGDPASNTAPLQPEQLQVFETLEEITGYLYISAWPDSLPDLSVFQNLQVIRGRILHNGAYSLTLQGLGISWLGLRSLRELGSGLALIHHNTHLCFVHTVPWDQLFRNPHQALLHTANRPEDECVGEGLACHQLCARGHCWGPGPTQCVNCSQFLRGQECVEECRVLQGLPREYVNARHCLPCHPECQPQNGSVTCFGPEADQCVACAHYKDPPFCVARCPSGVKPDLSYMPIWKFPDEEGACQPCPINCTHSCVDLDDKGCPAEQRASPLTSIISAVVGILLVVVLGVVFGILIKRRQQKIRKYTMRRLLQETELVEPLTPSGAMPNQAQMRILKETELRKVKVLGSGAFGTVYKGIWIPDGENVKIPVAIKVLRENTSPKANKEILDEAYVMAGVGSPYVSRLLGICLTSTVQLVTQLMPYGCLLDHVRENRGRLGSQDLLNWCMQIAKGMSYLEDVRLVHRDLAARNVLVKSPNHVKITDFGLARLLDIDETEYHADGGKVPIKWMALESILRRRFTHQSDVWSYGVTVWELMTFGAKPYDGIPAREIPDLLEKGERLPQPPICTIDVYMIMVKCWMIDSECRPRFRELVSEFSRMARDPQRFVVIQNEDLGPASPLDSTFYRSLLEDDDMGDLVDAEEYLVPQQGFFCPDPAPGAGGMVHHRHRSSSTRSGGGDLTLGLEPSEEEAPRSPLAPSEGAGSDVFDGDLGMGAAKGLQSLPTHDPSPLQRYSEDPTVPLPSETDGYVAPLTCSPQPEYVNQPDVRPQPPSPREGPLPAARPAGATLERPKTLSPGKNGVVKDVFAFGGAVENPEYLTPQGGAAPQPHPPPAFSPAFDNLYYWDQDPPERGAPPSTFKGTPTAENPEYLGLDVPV
EGFR, sequence (P00533 25-1210): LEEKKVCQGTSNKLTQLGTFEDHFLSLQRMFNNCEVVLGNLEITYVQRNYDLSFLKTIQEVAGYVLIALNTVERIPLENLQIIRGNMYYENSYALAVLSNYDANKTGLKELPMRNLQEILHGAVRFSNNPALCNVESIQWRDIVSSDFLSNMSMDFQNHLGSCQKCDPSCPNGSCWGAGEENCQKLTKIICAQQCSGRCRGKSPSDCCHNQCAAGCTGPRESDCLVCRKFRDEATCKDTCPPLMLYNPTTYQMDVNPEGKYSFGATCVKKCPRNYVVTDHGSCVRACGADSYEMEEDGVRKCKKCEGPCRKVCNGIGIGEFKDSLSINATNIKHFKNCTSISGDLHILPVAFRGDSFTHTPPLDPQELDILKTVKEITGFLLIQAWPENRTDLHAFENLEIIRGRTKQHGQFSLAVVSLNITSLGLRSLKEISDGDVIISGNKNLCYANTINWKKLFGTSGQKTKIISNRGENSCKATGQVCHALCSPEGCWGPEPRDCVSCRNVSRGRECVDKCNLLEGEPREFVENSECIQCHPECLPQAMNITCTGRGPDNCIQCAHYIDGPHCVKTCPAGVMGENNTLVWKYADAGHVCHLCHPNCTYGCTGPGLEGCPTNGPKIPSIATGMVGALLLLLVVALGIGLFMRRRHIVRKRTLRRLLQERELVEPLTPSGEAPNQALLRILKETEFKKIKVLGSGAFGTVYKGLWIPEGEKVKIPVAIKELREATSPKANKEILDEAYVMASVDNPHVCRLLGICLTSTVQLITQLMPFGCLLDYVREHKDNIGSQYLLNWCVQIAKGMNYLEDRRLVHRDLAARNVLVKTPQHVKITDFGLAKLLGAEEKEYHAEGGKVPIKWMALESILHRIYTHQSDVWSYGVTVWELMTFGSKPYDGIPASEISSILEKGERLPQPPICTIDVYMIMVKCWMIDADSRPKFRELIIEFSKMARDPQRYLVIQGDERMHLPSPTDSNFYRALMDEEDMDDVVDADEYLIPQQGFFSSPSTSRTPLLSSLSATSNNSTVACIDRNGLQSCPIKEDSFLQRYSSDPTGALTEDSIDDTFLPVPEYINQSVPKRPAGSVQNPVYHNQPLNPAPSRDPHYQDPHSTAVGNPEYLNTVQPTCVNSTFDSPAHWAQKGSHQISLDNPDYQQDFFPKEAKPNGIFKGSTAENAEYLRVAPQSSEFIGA
CDK9, sequence (P50750 whole entry): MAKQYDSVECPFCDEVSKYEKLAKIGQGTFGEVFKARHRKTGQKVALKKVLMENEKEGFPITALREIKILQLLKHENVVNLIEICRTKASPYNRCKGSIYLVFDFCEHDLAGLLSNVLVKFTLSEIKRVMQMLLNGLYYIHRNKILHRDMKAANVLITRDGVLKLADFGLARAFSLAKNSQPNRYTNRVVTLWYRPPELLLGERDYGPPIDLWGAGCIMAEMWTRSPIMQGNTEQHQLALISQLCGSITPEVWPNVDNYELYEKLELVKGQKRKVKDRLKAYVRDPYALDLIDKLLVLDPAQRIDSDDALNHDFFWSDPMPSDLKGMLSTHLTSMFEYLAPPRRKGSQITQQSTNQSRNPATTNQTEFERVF
CDK9, sequence (O60563 whole entry partner): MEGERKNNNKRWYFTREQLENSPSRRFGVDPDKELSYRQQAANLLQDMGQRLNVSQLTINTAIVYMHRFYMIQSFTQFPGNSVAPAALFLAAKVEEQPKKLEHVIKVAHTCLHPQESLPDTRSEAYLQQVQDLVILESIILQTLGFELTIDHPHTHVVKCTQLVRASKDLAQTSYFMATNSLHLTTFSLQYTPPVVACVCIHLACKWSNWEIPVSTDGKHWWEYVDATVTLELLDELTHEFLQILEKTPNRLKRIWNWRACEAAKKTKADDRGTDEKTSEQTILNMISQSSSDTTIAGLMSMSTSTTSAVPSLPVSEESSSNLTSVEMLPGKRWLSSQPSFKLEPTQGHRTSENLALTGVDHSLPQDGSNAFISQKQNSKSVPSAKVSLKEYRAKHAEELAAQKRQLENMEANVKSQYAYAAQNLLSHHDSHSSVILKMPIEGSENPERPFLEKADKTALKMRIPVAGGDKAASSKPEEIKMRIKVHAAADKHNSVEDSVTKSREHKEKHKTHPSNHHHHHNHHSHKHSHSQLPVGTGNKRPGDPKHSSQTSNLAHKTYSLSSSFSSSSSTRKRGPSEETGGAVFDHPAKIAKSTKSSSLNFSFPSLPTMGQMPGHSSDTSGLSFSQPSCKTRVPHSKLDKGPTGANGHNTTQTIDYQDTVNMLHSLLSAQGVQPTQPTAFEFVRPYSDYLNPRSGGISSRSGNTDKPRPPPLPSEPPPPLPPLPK

Question: With `Cc1ccc(C=NNC(=O)CSc2nc3ccccc3c(=O)n2Cc2ccc(S(N)(=O)=O)cc2)cc1` [Compound 9, 4-((2-((2-(2-(4-Methylbenzylidene)hydrazineyl)-2-oxoethyl)thio)-4-oxoquinazolin-3(4H)-yl)methyl)benzenesulfonamide] as the molecule, how does the GI % [1] read?
Answer: Its GI % is 13%.

Question: And the GI % [2]?
Answer: Its GI % is 14%.

Question: What about the GI % [3] of the same molecule?
Answer: Its GI % is 51%.

Question: And the GI % [4]?
Answer: The GI % was 15%.

Question: And the GI % [5]?
Answer: The GI % was 10%.

Question: And the GI % [6]?
Answer: The GI % was 16%.

Question: What about the GI % [7] of the same molecule?
Answer: The GI % was 58%.

Question: And the GI % [8]?
Answer: Its GI % is 11%.

Question: What about the GI % [9] of the same molecule?
Answer: The GI % was 14%.

Question: And the GI % [10]?
Answer: Its GI % is 14%.

Question: What about the GI % [11] of the same molecule?
Answer: The GI % was 22%.

Question: And the GI % [12]?
Answer: Its GI % is 11%.

Question: What about the GI % [13] of the same molecule?
Answer: Its GI % is 29%.

Question: What about the GI % [14] of the same molecule?
Answer: Its GI % is 18%.

Question: And the GI % [15]?
Answer: Its GI % is 54%.

Question: And the GI % [16]?
Answer: Its GI % is 26%.

Question: What about the GI % [17] of the same molecule?
Answer: The GI % was 22%.

Question: And the GI % [18]?
Answer: Its GI % is 21%.

Question: And the GI % [19]?
Answer: Its GI % is 36%.

Question: And the GI % [20]?
Answer: Its GI % is 14%.

Question: And the GI % [21]?
Answer: Its GI % is 20%.

Question: What about the GI % [22] of the same molecule?
Answer: Its GI % is 11%.

Question: And the GI % [23]?
Answer: The GI % was 41%.

Question: What about the GI % [24] of the same molecule?
Answer: The GI % was 11%.

Question: And the GI % [25]?
Answer: Its GI % is 12%.

Question: And the GI % [26]?
Answer: Its GI % is 19%.

Question: And the GI % [27]?
Answer: Its GI % is 19%.

Question: What about the “MG% (mean growth percent)” value [28] of the same molecule?
Answer: Its value is 88.5%.

Question: What about the IC50 [29] of the same molecule?
Answer: The IC50 was 15400 ± 320 nM.

Question: What about the IC50 [30] of the same molecule?
Answer: The IC50 was 378 ± 9.26 nM.

Question: What about the IC50 [31] of the same molecule?
Answer: Its IC50 is 229 nM.

Question: What about the IC50 [32] of the same molecule?
Answer: Its IC50 is 316 ± 7.76 nM.

Question: What about the GI % [33] of the same molecule?
Answer: The GI % was 37%.

Question: What does the source list for `Cc1ccc(NC(=O)c2ccc(CN3CCN(C)CC3)cc2)cc1Nc1nccc(-c2cccnc2)n1` [Imatinib, reference compound]?
Answer: GI % [2]: 18%; GI % [34]: 12.6%; GI % [3]: 14.6%; GI % [5]: 15.7%; GI % [6]: 10.6%; GI % [35]: 17.1%; GI % [36]: 18.6%; GI % [8]: 11.5%; GI % [9]: 47.1%; GI % [37]: 15.1%; GI % [38]: 24.5%; GI % [39]: 10.6%; GI % [14]: 11.6%; GI % [40]: 13.7%; GI % [22]: 10.6%; GI % [41]: 14.4%; GI % [24]: 11.2%; GI % [26]: 18.6%; GI % [27]: 29.1%; GI % [42]: < 10%; MG% (mean growth percent) [28]: 92.62%; MG% (mean growth percent) ([28]; listed as imatinib): 92.6%

— publication PMC11702208 (RSC Advances, 2025)
